Results as given in the METLIN SMRT retention time set (Domingo-Almenara et al. 2019).

Assay: gradient 5% acetonitrile 3 min, to 50% in 2 min, to 85% in 15 min, held 3 min, 100 µL/min
Details: column: Zorbax Extend-C18 2.1 x 50 mm; eluents: water / acetonitrile, 0.1% formic acid
Procedure, shortened: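 Standards, all pure, were combined into mixtures of ~100 molecules and run at 100 μL/min on a Zorbax Extend-C18 column (2.1 × 50 mm, 1.8 μm) with water and acetonitrile, each containing 0.1% formic acid. A coupled quadrupole time-of-flight mass spectrometer operated in positive and negative ionization mode. Retention time values come from computationally picked adduct peaks, each inspected manually.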

| Compound | RP-LC retention time [s] |
| --- | --- |
| O=C(CSc1cc(N2CCN(c3ccccc3F)CC2)ncn1)NC1CCCCC1 | 1050 |
| Cc1ccc(N2C(=O)CN(CCc3cccs3)[C@H]3CS(=O)(=O)C[C@H]32)cc1C | 865 |
| O=C(NCc1cccs1)C1CCCN(c2cnc3nccnc3c2)C1 (configuration not stated) | 661 |
| COc1cccc2cc(-c3nnc(NC(=O)NC4CCCC4)o3)oc12 | 830 |
| O=C1Nc2ccccc2SC1C(=O)N1CCC(C(=O)N2CCn3c2nc2ccccc23)CC1 (configuration not stated) | 688 |
| O=C(NC1CC1)C1CCc2sc(C(=O)N3CCCCCC3)cc2C1 (configuration not stated) | 736 |
| O=C(CCc1nnc2ccc(N3CCC4(CC3)OCCO4)nn12)N1CCN(c2ccccn2)CC1 | 581 |
| COc1ccc(N2CCN(C(=O)c3csc(C(=O)NC4CC4)n3)CC2)cc1 | 700 |
| Cc1cnc(CCNC(=O)Nc2ccc3c(c2)OCCO3)n1C1CCC1 | 517 |
| Cc1cc(C)cc(N2CCCn3c2nc2c3c(=O)n(C)c(=O)n2C)c1 | 841 |
| CCOc1ccc(CC(=O)N2CC(C(=O)NC)C3(CCCC3)C2)cc1OCC (configuration not stated) | 726 |
| CCOC(=O)c1csc(NC(=O)C2CCCN2S(C)(=O)=O)n1 (configuration not stated) | 649 |
| CCc1nc2c(NC(=O)COC)cccn2n1 | 646 |
| Cc1noc(C2CCCCN2CC(=O)Nc2nccs2)n1 (configuration not stated) | 675 |
| CCCC(=O)N1CC(c2nc(-c3ccc(F)cc3)no2)C2(CCOCC2)C1 (configuration not stated) | 872 |
| CC(C)C(=O)NCc1csc(C2CCN(C(=O)C3(c4ccccc4)CC3)CC2)n1 | 740 |
| O=C(Nc1ccc(F)cc1)C1CC(=O)N(c2ccc3c(c2)CCN3C(=O)C2CC2)C1 (configuration not stated) | 775 |
| CCNc1cc(N2CCCC(CCC(=O)N3CCCN(c4ncccn4)CC3)C2)ncn1 (configuration not stated) | 608 |
| Cc1ccc(S(=O)(=O)N2C(=O)CCC2C(=O)NC2CCC(C)CC2)cc1 (configuration not stated) | 958 |
| O=C(c1ccco1)N1CCCC(c2ccnc(-c3ccccc3)n2)C1 (configuration not stated) | 962 |
| CCOc1ccccc1-c1noc(CN2N=NC3C(=O)N(c4ccc(OC)c(OC)c4)C(=O)C32)n1 (configuration not stated) | 868 |
| COc1cccc(S(=O)(=O)N2C[C@@H](F)C[C@H]2C(=O)N2CCOCC2)c1 | 676 |
| COc1ccc(F)cc1S(=O)(=O)N1CCc2nn(C)c(=O)n2CC1 | 673 |
| O=C1CCN(S(=O)(=O)c2cccc3nsnc23)CCCCCCN1 | 724 |
| COc1ccc(-c2noc(NCC3CCCO3)n2)cc1 (configuration not stated) | 765 |
| O=C(c1ccsc1)N1CC(c2noc(C3CCCN3CC3CC3)n2)C1 (configuration not stated) | 590 |
| C=CCN1C(=O)COc2ccc(-c3csc(NC(=O)C4CCCCC4)n3)cc21 | 1060 |
| CN(C)C(=O)c1n[nH]c2c1CN(S(=O)(=O)c1ccccc1)CC2 | 660 |
| CCN1CCN(c2nc(F)c(F)c(S(=O)(=O)CCNc3ccccc3)c2F)CC1 | 689 |

Next, values leading:

| RP-LC retention time [s] | Compound |
| --- | --- |
| 675 | CN1C(=O)c2ccccc2Oc2ccc(C(=O)N3CCOCC3)cc21 |
| 1070 | CCCCN(CC)C(=O)Cn1c(=O)c2cnc(-c3ccccc3)nc2n(C)c1=O |
| 605 | COc1ccc(-c2cc3c4nnc(CCC(=O)N5CCN(c6ccccn6)CC5)n4ccn3n2)cc1 |
| 894 | O=C(c1ccc(F)cc1F)N1CCN(c2cc(-c3ccc(Cl)cc3)[nH]n2)CC1 |
| 722 | Cc1nc2ccccc2c(=O)n1Cc1noc(C2CC(=O)N(c3ccccc3)C2)n1 (configuration not stated) |
| 671 | O=C(O)c1nnn(-c2cccc(F)c2)c1-c1ccccn1 |
| 676 | CC(C)CCNC(=O)c1ccc2nc(CCc3ccc(NC(=O)C(C)C)cc3)[nH]c2c1 |
| 909 | COc1ccc(N2CC(c3noc(-c4ccc(C)cc4)n3)CC2=O)cc1OC (configuration not stated) |
| 740 | Cc1noc(C)c1-c1ccc(S(=O)(=O)NCCc2ccc(S(N)(=O)=O)cc2)cc1 |
| 706 | CCc1cc(C(=O)N2CCN(c3ccccn3)CC2)nc2cc(-c3cccs3)nn12 |
| 742 | Cc1cccc(CNC(=O)c2ccc3c(c2)CC(=O)N3C)c1 |
| 779 | CCc1ccc(NC(=O)c2sc3nc(C)nc(N4CCN(c5ccccn5)CC4)c3c2C)cc1 |
| 695 | CCN(CC)c1ncc2c(n1)CCC(C(=O)NCc1cccc(OC)c1)C2 (configuration not stated) |
| 586 | Cc1ccc2[nH]c(=O)c(CCC(=O)NCc3ccncc3)cc2c1 |
| 812 | COCCn1cc(C(=O)Nc2cccc(C(C)=O)c2)c2nn(-c3ccccc3)c(=O)c-2c1 |
| 968 | Cc1ccc(-c2nc(-c3ccc4nnc(C)n4c3)no2)cc1 |
| 697 | CCC(NC(=O)c1cn2cc(C)ccc2n1)c1ccc(OC)cc1 (configuration not stated) |
| 860 | CCCn1cc(S(=O)(=O)Nc2cc(OC)cc(OC)c2)c2cccnc21 |
| 899 | COC(=O)c1ccc(CN2C(=O)C(O)(c3ccccc3)c3ccccc32)cc1 (configuration not stated) |

| RP-LC retention time [s] | Compound |
| --- | --- |
| 963 | COc1ccc(Cc2nc(-c3cccc(-c4ccn[nH]4)c3)no2)cc1Cl |
| 554 | CN(C(=O)Cn1c(CCO)nc2ccccc21)c1ccccc1 |
| 654 | O=C(Cn1cnc(-c2noc(-c3ccncc3)n2)c1)NCc1ccc(F)cc1 |
| 881 | Cc1cc(-c2nnc(-c3ccco3)o2)c(C)n1CC(=O)NCc1ccc(F)cc1Cl |
| 836 | Cc1cc2c(c(=O)n(-c3ccccc3)c(=O)n2CC(=O)Nc2cccc(Br)c2)n1C |
| 809 | Cc1cc(C)cc(NC(=O)N2CCC(n3cnc4ccccc4c3=O)CC2)c1 |
| 913 | O=C(NC1CCCC1)C1CCCN(c2nc3ccsc3c(=O)n2Cc2ccc(F)cc2)C1 (configuration not stated) |
| 874 | CC1(C(=O)NCc2ccccc2)CN(S(C)(=O)=O)CC(=O)N1CCc1ccc(Cl)cc1 (configuration not stated) |
| 855 | CC(C(=O)NCCc1cccs1)n1c2ccccc2c2cnn(C)c(=O)c21 (configuration not stated) |
| 792 | Cc1cc(NC(=O)c2cc3c(=O)n4cccc(C)c4nc3s2)no1 |
| 736 | Cc1nc2ccn(Cc3cccs3)c(=O)c2cc1C(=O)NC1CCCC1 |
| 635 | CCCn1cnc2cc(CNS(=O)(=O)c3ccc(F)cc3)ccc21 |
| 659 | CCN1CCC(N(Cc2ccc3c(c2)OCO3)C(=O)Nc2ccc(OC)cc2OC)CC1 |
| 581 | O=C(NCc1nc(-c2ccccc2)no1)C1CCN(Cc2nc3ccccc3[nH]2)CC1 |
| 648 | COC(=O)C1=C(N)C(=O)N(CCc2ccc(OC)c(OC)c2)C1 |
| 932 | CCc1ccc(CNC(=O)C2CC(=O)N(c3ccc4c(c3)CCN4C(C)=O)C2)cc1 (configuration not stated) |
| 860 | O=C(NCc1csc(-c2cccs2)n1)C1CCN(S(=O)(=O)c2ccccc2F)CC1 |
| 715 | O=C(Cc1ccccc1Cl)NCCn1cnc(-c2ccccc2)cc1=O |
| 667 | CCCC(NC(=O)c1cccc(N(C)C)c1)C(=O)Nc1nc2ccccc2[nH]1 (configuration not stated) |
